Data set [1] is described as follows: Comparative pharmacokinetics of oxycodone in the cynomolgus monkey after oral administration. To be noted: male cynomolgus monkeys, oral, 1 mg oxycodone free base equivalents/kg.
Data set [2] is described as follows: Comparative oral bioavailability of oxycodone from various dicarboxylate bridged amino acid prodrugs in dogs (nine-way crossover). It counts as in vivo, dog. The conditions noted are these: 1 mg/kg oxycodone free base, mean (±sd).
Data set [3] can be described thus: Bioavailability of oxycodone, codeine and dihydrocodeine from their succinyl valine ester prodrugs in the dog (oral gavage, two-way crossover). To be noted: dogs, oral gavage; for T>50%Cmax of oxycodone: 1 mg free base equivalents oxycodone/kg; for T>50%Cmax of dihydrocodeine: 1 mg free base equivalents dihydrocodeine/kg. As for the experimental part:
The characteristics of the test animals are set out in Table 10, below.
(§1) Blood samples were taken at various times after administration and submitted to analysis for the parent drug and pro-drug using a validated LC-MS-MS assay. Pharmacokinetic parameters derived from the plasma analytical data were determined using Win Nonlin.

Data set [4] is described as follows: Comparative pharmacokinetics of oxycodone after oral administration to female Sprague Dawley rats. To be noted: oral, 10 mg oxycodone free base equivalents/kg.
In data set [5] the test system is guinea pig small intestine myenteric plexus longitudinal muscle. The data set can be described thus: Ex vivo smooth muscle contractility, electrical field stimulation response of isolated guinea pig small intestine. To be noted: for EC50: Cavia porcellus, isolated guinea pig ileum, concentration as free base of opioid, read-out: EC50, opioid effect on electrical field stimulation response.

For data set [6], the system named is gut motility in the rat. The data set can be described thus: Charcoal propulsion test of GI motility in the rat. It counts as in vivo. The conditions noted are these: oral; for delay of the passage of the charcoal meal (gut motility): 30 mg/kg or equimolar dose. As for the experimental part:
Test treatments were administered to groups of up to 10 rats fasted overnight prior to the test.
Test treatments were administered orally 60 minutes prior to a 2.0 mL oral dose of a 10% suspension of charcoal in 5% gum arabic. Thirty minutes after dosing with charcoal, the rats were sacrificed and the entire gastro-intestinal tract quickly and carefully removed. The distance the charcoal meal had traveled from the pyloric sphincter toward the caecum was measured and expressed as a percentage of both the total gut length and the length of the small intestine.

Data set [7] in a line: Systemic availability of hydrocodone in dogs after oral administration of hydrocodone or hydrocodone succinyl valine enol ester. The conditions noted are these: 1 mg hydrocodone free base equivalents/kg; for half-life: t½ of hydrocodone. As for the experimental part: Test substances i.e. hydrocodone or hydrocodone succinyl valine enol ester were administered by oral gavage to a group of five male dogs in a two-way crossover design The characteristics of the test animals are set out in Table 26, below.
as §1

[8] abbreviates: male dogs, oral, individual dogs 1M-5M.

Where “and” joins values, the source holds several entries; their conditions need not be identical. Equal values may be shown once. Marks after values point to notes of the source that are not given here.

Consider `COc1ccc2c3c1O[C@H]1C(=O)CC[C@@]4(O)[C@@H](C2)N(C)CC[C@]314.Cl` [Oxycodone HCl, oxycodone hydrochloride, reference compound], for which the “T>50%Cmax of oxycodone” value in data set [1] (individual monkeys 1-5, hydrochloride) was 1.84 h and 1.18 h and 1.89 h and 2.37 h and 1.79 h; in data set [1] (mean (n=5)) it was 1.81 h; in data set [3] (individual dogs 1-5), 0.5 h; in data set [3] (median (n=5)) it was 0.5^a h; in data set [4] (individual rats, hydrochloride), 1.75 h (2×) and 0.75 h (2×) and 0.5 h; in data set [4] (median), 0.75^a h. The “T50% Cmax of oxycodone” value in data set [2] is reported as 2.0 (±0.6) h.

Consider `COc1ccc2c3c1O[C@H]1[C@@H](OC(=O)CCC(=O)N[C@H](C(=O)O)C(C)C)CCC4[C@@H](C2)N(C)CC[C@@]341` (stereo partly drawn) [dihydrocodeine-[succinyl-(S)-valine]ester], for which the EC50 (in general, the concentration at which the effect is half-maximal) in data set [5] was 20 µM. Also, the “T>50%Cmax of dihydrocodeine” value in data set [3] (median (n=5)) was 2 h. The “delay of the passage of the charcoal meal (gut motility)” value (“delay” for short) in data set [6] is 8.5%.

`COc1ccc2c3c1O[C@H]1[C@@H](OC(=O)CCC(=O)NC(C(=O)O)C(C)C)C=CC4[C@@H](C2)N(C)CC[C@@]341` (stereo in doubt) [Codeine-[succinyl-(S)-valine] ester, codeine-[succinyl-(S)-valine]ester]: in data set [5], the EC50 came to 6.3 µM. The “reduction in potency compared to parent drug” value in data set [5] (guinea pig ileal smooth muscle) stood at 50%. The “T>50%Cmax of codeine” value in data set [3] (1 mg free base equivalents codeine/kg, median (n=5)) amounted to 2 h. For the same molecule, the “delay” value in data set [6] is on record as “less than half the amount of codeine”.

In the case of `COc1ccc2c3c1O[C@H]1C(=O)CC[C@@]4(O)[C@@H](C2)N(C)CC[C@]314` [Oxycodone, oxycodone, reference compound], the “T>50%Cmax of oxycodone” value came to 1.8 h in data set [1] (mean (n=5)) and 0.75 h in data set [4] (median). Also, the “% change from vehicle-treated animals, small intestine” value is on record as −15.6% in data set [6] (10 mg/kg), −52.2% in data set [6] (30 mg/kg) and −75.5% in data set [6] (100 mg/kg). Also, the results for the “% change from vehicle-treated animals, total gut length” value in data set [6] (10 mg/kg), in data set [6] (30 mg/kg) and in data set [6] (100 mg/kg) were −16.0%, −52.2% and −76.5%, respectively. In addition, the “delay” value in data set [6] is listed as 52%.

As to `COc1ccc2c3c1O[C@H]1[C@@H](O)CC[C@H]4[C@@H](C2)N(C)CC[C@@]341` [Dihydrocodeine, dihydrocodeine, reference compound], the EC50 in data set [5] turned out to be 5 µM. For the same molecule, the “T>50%Cmax of dihydrocodeine” value is on record as 0.5 h in data set [3] (individual dogs 1-5); 0.5^a h in data set [3] (median (n=5)); 0.5 h in data set [3] (median (n=5), listed as dihydrocodeine). In data set [6], the “delay” value is listed as roughly 30%.

Consider `COc1ccc2c3c1O[C@H]1C(=O)CC[C@H]4[C@@H](C2)N(C)CC[C@]314` [Hydrocodone, hydrocodone], for which, in data set [7] (setting [8]), the AUC of hydrocodone is 0.155 µg·h/mL and 0.111 µg·h/mL and 0.0917 µg·h/mL and 0.071 µg·h/mL and 0.0953 µg·h/mL; the AUCt of hydrocodone is 0.154 µg·h/mL and 0.107 µg·h/mL and 0.0892 µg·h/mL and 0.0697 µg·h/mL and 0.0941 µg·h/mL; the Cmax of hydrocodone was 0.119 µg/mL and 0.0768 µg/mL and 0.0578 µg/mL and 0.0533 µg/mL and 0.0711 µg/mL; the “T>50%Cmax of hydrocodone” value is 0.75 h (3×) and 1.25 h (2×). Besides, the t½ of hydrocodone in data set [7] (setting [8]) is 1.58 h and 1.66 h (2×) and 1.46 h. In addition, in data set [7] (male dogs, oral, mean), the “T>50%Cmax of hydrocodone” value is on record as 0.95 h. Further, the Tmax of hydrocodone in data set [7] (male dogs, oral, median) is listed as 0.5* h. Further, the Tmax – broadly, the time from dosing to the highest level – in data set [7] (male, Beagle, dog, plasma, po) is 0.5 h. Also, the AUC (commonly the area under the concentration-time curve, a measure of exposure) in data set [7] (male, Beagle, dog, plasma, po, AUC of hydrocodone, male dogs, mean) was 0.105 µg·h/mL. The AUC(0-t) (commonly the area under the concentration-time curve up to a stated or last time point) in data set [7] (male, Beagle, dog, plasma, po, AUCt of hydrocodone, male dogs, mean) amounted to 0.103 µg·h/mL. For the same molecule, the Cmax (in general, the maximum level reached in the sampled fluid or tissue) in data set [7] (male, Beagle, dog, plasma, po, Cmax of hydrocodone, male dogs, mean (n=5)) amounted to 0.0756 µg/mL. Further, the half-life (in general, how long it takes for the measured level to halve) in data set [7] (male, Beagle, dog, plasma, po, male dogs, individual dogs 1M-5M) is 1.31 h. The half-life in data set [7] (male, Beagle, dog, plasma, po, male dogs, mean) is 1.54 h.
